Paper PMC8041276 (ACS Chemical Neuroscience, 2021)

What was measured:
[1] = Metabolic stability in rat liver microsomes; format: in vitro ADME; conditions: male, pH 7.4, 10 μM compound, read-out: intrinsic clearance
Procedure: Metabolic stability of compounds 27 and 28 was analyzed using incubation systems composed of tested compound (10 μM), rat liver microsomes (RLMs, microsomes from rat male liver, pooled; 0.4 mg/mL; Sigma-Aldrich), NADPH-regenerating system (NADP+, glucose-6-phosphate, and glucose-6-phosphate dehydrogenase in 100 mM potassium buffer, pH 7.4; all from Sigma-Aldrich) and potassium buffer, pH 7.4. […] First, all samples containing incubation mixture (without NADPH-regenerating system) were preincubated in thermoblock at 37 °C for 10 min. Then reaction was initiated by the addition of NADPH-regenerating system. In control samples NADPH-regenerating system was replaced with potassium buffer. Probes were incubated for 30 and 60 min at 37 °C. After addition of internal standard (pentoxifylline, 10 μM) biotransformation process was stopped by addition of perchloric acid. Next, samples were centrifuged and supernatants were analyzed using UPLC/MS (Waters Corporation, Milford, MA). All experiments were run in duplicates. Half-life time was evaluated using nonlinear regression model using GraphPad Prism software, and intrinsic clearance was calculated from the equation Clint = (volume of incubation [μL]/protein in the incubation [mg])0.693/t1/2.[46]

[2] = biological target: 5-HT6R (Homo sapiens, UniProt P50406); test: Basal cAMP production (constitutive Gs signaling) in NG108-15 cells transiently expressing 5-HT6R, CAMYEL BRET; format: cell-based; design: expressed in transfected cells; host or cells: NG108-15 (transient, Lipofectamine 2000, cotransfected with the CAMYEL sensor); conditions: for functional profile: 5-HT6R-dependent Gs signaling, NG108-15 cells; for IC50: decrease of basal cAMP, NG108-15 cells transiently expressing 5-HT6R
Procedure: NG108-15 cells were grown in Dulbecco’s modified Eagle’s medium (DMEM) supplemented with 10% dialyzed fetal calf serum, 2% hypoxanthine/aminopterin/thymidine (Life Technologies), and antibiotics. cAMP measurement was performed in cells transiently expressing 5-HT6R using the bioluminescence resonance energy transfer (BRET) sensor for cAMP, CAMYEL (cAMP sensor using YFP-Epac-RLuc).[45] NG108-15 cells were cotransfected in suspension with 5-HT6R (0.5 μg DNA/million cells) and CAMYEL constructs (1 μg DNA/million cells), using Lipofectamine 2000 according to the manufacturer’s protocol, and plated in white 96-well plates (Greiner) at a density of 50 000 cells per well. […] Coelanterazine H (Molecular Probes) was added at a final concentration of 5 μM and left at room temperature for 5 min. BRET was measured using a Mithras LB 940 plate reader (Berthold Technologies).

[3] = biological target: T1, 5-HT1AR (Homo sapiens, UniProt P08908); test: [3H]-8-OH-DPAT radioligand binding assay, HEK293 cells; conditions: mean of three experiments
T1 construct: expressed in transfected cells
T1 sequence (P08908 1-422): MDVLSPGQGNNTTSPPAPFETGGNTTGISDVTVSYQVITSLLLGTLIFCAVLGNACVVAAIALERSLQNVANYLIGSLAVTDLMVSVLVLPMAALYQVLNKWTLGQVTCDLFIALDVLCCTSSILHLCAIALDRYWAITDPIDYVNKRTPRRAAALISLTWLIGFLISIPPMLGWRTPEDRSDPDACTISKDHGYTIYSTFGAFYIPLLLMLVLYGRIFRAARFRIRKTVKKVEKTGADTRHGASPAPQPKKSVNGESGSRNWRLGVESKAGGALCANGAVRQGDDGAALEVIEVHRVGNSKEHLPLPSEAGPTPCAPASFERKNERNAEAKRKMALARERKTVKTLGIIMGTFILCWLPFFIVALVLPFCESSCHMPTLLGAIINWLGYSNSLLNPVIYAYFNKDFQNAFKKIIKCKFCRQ
Procedure: (§1) All experiments were carried out according to the previously published procedures.[41]−[43] HEK293 cells stably expressing human 5-HT1A, 5-HT6, 5-HT7b, and D2L receptors (prepared with the use of Lipofectamine 2000) or CHO-K1 cells with plasmid containing the sequence coding for the human serotonin 5-HT2A receptor (PerkinElmer) were maintained at 37 °C in a humidified atmosphere containing 5% CO2 and grown in Dulbecco’s modified Eagle’s medium containing 10% dialyzed fetal bovine serum and 500 μg/mL G418 sulfate. For membrane preparation, cells were cultured in 150 cm^2 flasks, grown to 90% confluence, washed twice with prewarmed to 37 °C phosphate buffered saline (PBS), and centrifuged (200g) in PBS containing 0.1 mM EDTA and 1 mM dithiothreitol. Prior to membrane preparation, pellets were stored at −80 °C. Cell pellets were thawed and homogenized in 10 volumes of assay buffer using an Ultra Turrax tissue homogenizer and centrifuged twice at 35 000g for 15 min at 4 °C, with incubation for 15 min at 37 °C between the centrifugations. The composition of the assay buffers was experimentally selected to achieve the maximum signal window (more details in Supporting Information). All assays were carried out in a total volume of 200 μL in 96-well plates for 1 h at 37 °C except 5-HT1AR and 5-HT2AR which were incubated at room temperature and 27 °C, respectively. The process of equilibration was terminated by rapid filtration through Unifilter plates with a 96-well cell harvester, and radioactivity retained on the filters was quantified on a Microbeta plate reader (PerkinElmer, USA). For displacement studies the assay samples contained the following as radioligands (PerkinElmer, USA): 2.5 nM [^3H]-8-OH-DPAT (135.2 Ci/mmol) for 5-HT1AR; 1 nM [^3H]-ketanserin (53.4 Ci/mmol) for 5-HT2AR; 2 nM [^3H]-LSD (83.6 Ci/mmol) for 5-HT6R; 0.8 nM [^3H]-5-CT (39.2 Ci/mmol) for 5-HT7R or 2.5 nM [^3H]-raclopride (76.0 Ci/mmol) for D2LR. Nonspecific binding was defined in the presence of 10 μM 5-HT in 5-HT1AR and 5-HT7R binding experiments, whereas 20 μM mianserin, 10 μM methiothepine, and 10 μM haloperidol were used in 5-HT2AR, 5-HT6R, and D2LR assays, respectively. Each compound was tested in triplicate at seven concentrations (10^–10–10^–4 M). The inhibition constants (Ki) were calculated from the Cheng–Prusoff equation.[44]

[4] = biological target: T2, 5-HT7R (Homo sapiens, UniProt P34969); test: [3H]-5-CT radioligand binding assay, HEK293 cells; conditions: mean of three experiments
T2 construct: expressed in transfected cells
Procedure: as §1

[5] = biological target: T3, D2R (Homo sapiens, UniProt P14416); test: [3H]-raclopride radioligand binding assay, HEK293 cells; conditions: mean of three experiments
T3 construct: expressed in transfected cells
Procedure: as §1

[6] = biological target: T4, 5-HT2AR (Homo sapiens, UniProt P28223); test: [3H]-ketanserin radioligand binding assay, CHO-K1 cells; conditions: mean of three experiments
T4 construct: host or cells: CHO-K1
T4 sequence (P28223 whole entry): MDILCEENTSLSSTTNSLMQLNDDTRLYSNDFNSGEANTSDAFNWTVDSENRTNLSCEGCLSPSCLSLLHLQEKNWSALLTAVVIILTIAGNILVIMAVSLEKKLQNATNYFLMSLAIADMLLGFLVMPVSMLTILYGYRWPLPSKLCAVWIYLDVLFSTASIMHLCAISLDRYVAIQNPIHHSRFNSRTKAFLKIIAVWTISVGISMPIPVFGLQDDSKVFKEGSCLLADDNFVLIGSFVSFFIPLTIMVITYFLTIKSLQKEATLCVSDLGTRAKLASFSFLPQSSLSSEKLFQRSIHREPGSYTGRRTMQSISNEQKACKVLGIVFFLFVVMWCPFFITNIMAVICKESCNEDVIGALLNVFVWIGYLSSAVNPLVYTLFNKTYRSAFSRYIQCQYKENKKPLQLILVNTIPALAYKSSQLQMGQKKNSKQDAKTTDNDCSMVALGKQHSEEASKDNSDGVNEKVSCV

Sequence of 5-HT6R (P50406 whole entry): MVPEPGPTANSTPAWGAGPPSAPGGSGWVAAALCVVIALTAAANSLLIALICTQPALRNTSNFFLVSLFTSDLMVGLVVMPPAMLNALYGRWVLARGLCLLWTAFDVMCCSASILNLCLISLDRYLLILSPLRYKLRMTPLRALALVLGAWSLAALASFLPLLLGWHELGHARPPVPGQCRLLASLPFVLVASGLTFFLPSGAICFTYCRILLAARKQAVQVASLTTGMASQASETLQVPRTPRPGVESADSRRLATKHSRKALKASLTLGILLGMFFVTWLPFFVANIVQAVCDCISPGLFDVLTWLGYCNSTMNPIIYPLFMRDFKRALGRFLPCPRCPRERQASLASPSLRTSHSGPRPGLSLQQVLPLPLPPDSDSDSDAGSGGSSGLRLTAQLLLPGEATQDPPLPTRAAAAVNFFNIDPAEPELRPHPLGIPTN
T3 sequence (P14416 whole entry): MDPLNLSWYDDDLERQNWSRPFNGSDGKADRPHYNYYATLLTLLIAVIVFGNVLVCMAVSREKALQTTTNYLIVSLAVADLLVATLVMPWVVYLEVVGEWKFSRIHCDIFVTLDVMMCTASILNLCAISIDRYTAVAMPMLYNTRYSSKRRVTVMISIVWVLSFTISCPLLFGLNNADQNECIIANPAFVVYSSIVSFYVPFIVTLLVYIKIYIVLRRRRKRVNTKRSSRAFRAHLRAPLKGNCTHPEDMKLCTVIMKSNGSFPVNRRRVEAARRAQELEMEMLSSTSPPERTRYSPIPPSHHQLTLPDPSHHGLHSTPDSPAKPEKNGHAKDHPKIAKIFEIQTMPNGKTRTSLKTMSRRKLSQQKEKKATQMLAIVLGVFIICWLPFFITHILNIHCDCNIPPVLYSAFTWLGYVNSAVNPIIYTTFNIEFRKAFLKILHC
T2 sequence (P34969 1-432): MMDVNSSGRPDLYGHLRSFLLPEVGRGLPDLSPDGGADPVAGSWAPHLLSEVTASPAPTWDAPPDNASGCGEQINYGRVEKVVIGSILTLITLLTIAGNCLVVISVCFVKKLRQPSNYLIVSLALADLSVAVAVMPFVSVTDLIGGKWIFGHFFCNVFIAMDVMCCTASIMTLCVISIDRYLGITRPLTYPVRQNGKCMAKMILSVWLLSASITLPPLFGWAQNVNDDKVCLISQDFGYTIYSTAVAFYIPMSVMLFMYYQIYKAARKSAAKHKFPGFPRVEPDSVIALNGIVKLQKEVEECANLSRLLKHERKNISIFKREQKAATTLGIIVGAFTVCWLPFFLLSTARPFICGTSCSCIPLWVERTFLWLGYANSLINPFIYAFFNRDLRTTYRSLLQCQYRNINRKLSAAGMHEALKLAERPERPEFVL

For `O=C(N[C@H]1CCNC1)c1ccn(S(=O)(=O)c2cccc(Cl)c2)c1-c1ccc(F)cc1` [Compound 28, (S)-2-(4-Fluorophenyl)-1-[(3-chlorophenyl)sulfonyl]-N-(pyrrolidin-3-yl)-1H-pyrrole-3-carboxamide], the microsomal CLint at 10 μM [1] was 1.03 µL/min/mg, the functional profile [2] was “inverse agonist” and the IC50 [2] was 0.14 µM. For the same compound, the Ki [3] was 61.5 µM, the Ki [4] was 3.53 µM and the Ki [5] was 7.34 µM. The Ki [6] was 8.57 µM.
In the case of `O=C(N[C@@H]1CCNC1)c1ccn(S(=O)(=O)c2cccc(Cl)c2)c1-c1ccc(F)cc1` [Compound 27, (R)-2-(4-Fluorophenyl)-1-[(3-chlorophenyl)sulfonyl]-N-(pyrrolidin-3-yl)-1H-pyrrole-3-carboxamide], the microsomal CLint at 10 μM [1] is reported as 0.82 µL/min/mg, the functional profile [2] is reported as “inverse agonist” and the IC50 [2] is reported as 0.265 µM. It also gave a Ki [3] of 53.7 µM, a Ki [4] of 42 µM and a Ki [5] of 7.08 µM. For the same compound, the Ki [6] was 13.5 µM.
